Measured values as given in patent US10125356B2, “Enzymatic methods and enzymes” (Givaudan SA, priority 2007, dated 2018).
Peptide text beside a SMILES is read from it. * marks the point of attachment. Cbz = O=C(OCc1ccccc1)*

Key:
[1] = tested on: peptidase (SEQ ID NO:2) and β-lyase; assay: Inhibition of free SH release from S-benzyl-cys-gly by peptidase plus β-lyase, monobromobimane detection; format: biochemical, Corynebacterium sp. Ax20; details: peptidase 0.1 μg/ml, β-lyase 5 μg/ml
Experimental: For the results shown below (S-benzyl)-cys-gly was used.
Instead of derivatising the free NH2 group of the conjugate by adding Fluram, the free SH group released from the conjugate by the subsequent action of both enzymes was derivatised by adding monobromobimane (Fluka, Buchs, Switzerland) dissolved in a NaCO3 buffer (100 mM, pH 8.8) to give a final concentration of 0.5 mM to 1 mM. After 5 to 15 min incubation the fluorescence was measured on a Flex-station (Molecular devices, Sunnyvale, Calif., USA) with an excitation wavelength of 385 nm and an emission wavelength of 480 nm.

[2] = tested on: Ax20 peptidase (SEQ ID NO: 2); assay: Inhibition of Pro-Gly cleavage by recombinant Ax20 peptidase, fluorescamine detection of free NH2; format: biochemical, Corynebacterium sp. Ax20; details: Pro-Gly 1 mM, 1 μg/ml peptidase, 60 min at 37° C.
Experimental: Cleavage of the peptide substrate Pro-Gly by addition of the recombinant Ax20 peptidase (SEQ ID NO: 2) released a unique free NH2 group which can be derivatized by fluorescamine (Fluram™, Fluka, Buchs, Switzerland). Test compounds (for example, potential enzyme inhibitors) are dissolved in dimethylsulfoxid (DMSO), for example in individual wells of a microtiter plate. […] Controls are run in parallel and subjected to the same procedure. A positive control contains DMSO without inhibitor, a negative control contains no substrate.

[3] = target: T1, AMRE enzyme (Nα-acyl-glutamine-aminoacylase) (Corynebacterium striatum, UniProt Q8GGD4); assay: Inhibition of AMRE-catalysed release of free NH2 groups from N-Lauroyl-glutamine; format: biochemical
T1 construct: made in house
Experimental: In an additional step to example 7 or 8, the identified peptidase inhibitors were tested for their modulating effect against the AMRE enzyme (Nα-acyl-glutamine-aminoacylase described by Natsch in EP1258531), thereby identifying dual inhibitors of both metallopeptidase enzymes involved in malodour release.
AMRE is formed as described in example 6 of EP1258531.

Ax20 peptidase = assay: Substrate specificity of recombinant Ax20 peptidase, cleavage by thin layer chromatography; format: biochemical, Corynebacterium sp. Ax20; design: key: (+++) indicating >80% cleavage of a 1 mM solution by 0.1 μg/ml peptidase during an incubation for 1 h; (++) indicates complete cleavage of a 1 mM solution by 1 μg/ml peptidase during an incubation for 1 h; (+) indicates partial cleavage (20-80%) of a 1 mM solution by 1 μg/ml peptidase during an incubation for 1 h; (−) indicating the absence of any cleavage; details: 1 mM solution, 0.1 or 1 μg/ml peptidase, incubation 1 h
Experimental: The recombinant Ax20 peptidase formed as described in example 3 (affinity column purified tagged enzyme) was incubated with different compounds, in particular potential candidate dipeptide substrates, to characterize the substrate specificity and to identify substrates useful for screening assays (for example to screen for modulators including inhibitors).
The table below lists the tested compounds (mostly dipeptides indicated by their short names, e.g. ala-gly for an alanine-glycine dipeptide) and indicates whether they are cleaved by the peptidase. Z indicates a benzyloxy-carbonyl protecting group at the N-terminus of the peptide.
Cleavage was determined by thin layer chromatography.
Amounts are qualitative with (+++) indicating >80% cleavage of a 1 mM solution by 0.1 μg/ml peptidase during an incubation for 1 h; (++) indicates complete cleavage of a 1 mM solution by 1 μg/ml peptidase during an incubation for 1 h and (+) indicates partial cleavage (20-80%) of a 1 mM solution by 1 μg/ml peptidase during an incubation for 1 h and (−) indicating the absence of any cleavage.

C. sp. Ax 20 extract = assay: Cleavage of conjugates by Corynebacterium sp. Ax20 cellular extract, release of 3-sulfanyl-3-methyl-hexanol by gas chromatography; format: biochemical; details: conjugate 1 mM incubated with C. sp. Ax 20 extract for 24 h
Experimental: The test compounds (cys-conjugate (1 mM) or cys-gly-conjugate (1 mM)) were incubated also with the wild-type strain Corynebacterium sp. Ax20 extract naturally containing the peptidase of SEQ ID NO:2. Corynebacterium sp. Ax20 cellular extract was prepared as described in example 1. The resulting extract was diluted to the same volume as the original culture has had when adjusted to an optical density of OD 4. The substrate was incubated with the extract for 24 h.
(§1) Cleavage was measured by gas chromatography to determine the release of 3-sulfanyl-3-methyl-hexanol in mM.

β-lyase = target: T2, β-lyase (Corynebacterium striatum, UniProt Q64HC5); assay: Cleavage of conjugates by β-lyase, release of 3-sulfanyl-3-methyl-hexanol by gas chromatography; format: biochemical, Corynebacterium sp. Ax20; details: conjugate 1 mM incubated with β-lyase
T2 construct: made in house
Experimental: The test compounds (Cys-conjugate (1 mM) or Cys-Gly-conjugate (1 mM)) were incubated with β-lyase.
as §1

C. sp. Ax20 extract = assay: Inhibition of malodourant release by C. sp. Ax20 extract; format: biochemical, Corynebacterium sp. Ax20; details: o-phenantrolin 0.5 mM, Complete at manufacturer's use concentration, 10 min pre-incubation
Experimental: (§2) Extracts from C. sp. Ax20 and C. jeikeium K411 were formed as described in example 1.
(§3) O-phenantrolin (0.5 mM), a metallopeptidase inhibitor, or Complete™ (EDTA free), a protease inhibitor mix (Roche biochemicals, Switzerland; use concentration as indicated by the manufacturer) that contains broad specificity serine and […] inhibitors but no metallopeptidase inhibitors were added to batches of the extracts and incubated for 10 min.
(§4) The cys-conjugate or the cys-gly-conjugate (1 mM), both precursors for the malodourant 3-sulfanyl-3-methyl-hexanol, were then added to the C. sp. Ax20 or C. jeikeium K411 extracts containing the different inhibitors.
(§5) The release of the malodourant 3-sulfanyl-3-methyl-hexanol, which indicates enzyme activity in the Corynebacteria cell lysates, was measured as described in examples 12 and 13.
(§6) The results (in % inhibition of 3-sulfanyl-3-methyl-hexanol release compared to reactions without added inhibitors) are indicated in the table below.

C. jeikeium K411 extract = assay: Inhibition of malodourant release by C. jeikeium K411 extract; format: biochemical, Corynebacterium jeikeium K411; details: o-phenantrolin 0.5 mM, Complete at manufacturer's use concentration, 10 min pre-incubation
Experimental: as §2, §3, §4, §5, §6

T1 sequence (Q8GGD4 whole entry): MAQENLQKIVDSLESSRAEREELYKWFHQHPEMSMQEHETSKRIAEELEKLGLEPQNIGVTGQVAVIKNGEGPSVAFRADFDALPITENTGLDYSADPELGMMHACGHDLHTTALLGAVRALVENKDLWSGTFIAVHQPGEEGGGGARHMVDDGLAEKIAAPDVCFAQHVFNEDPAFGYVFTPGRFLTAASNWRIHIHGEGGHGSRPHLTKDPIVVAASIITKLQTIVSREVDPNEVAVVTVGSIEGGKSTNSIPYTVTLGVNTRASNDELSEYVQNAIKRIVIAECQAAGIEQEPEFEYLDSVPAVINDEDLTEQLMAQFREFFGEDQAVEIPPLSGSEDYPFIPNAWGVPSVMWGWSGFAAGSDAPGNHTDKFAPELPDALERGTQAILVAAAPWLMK
T2 sequence (Q64HC5 whole entry): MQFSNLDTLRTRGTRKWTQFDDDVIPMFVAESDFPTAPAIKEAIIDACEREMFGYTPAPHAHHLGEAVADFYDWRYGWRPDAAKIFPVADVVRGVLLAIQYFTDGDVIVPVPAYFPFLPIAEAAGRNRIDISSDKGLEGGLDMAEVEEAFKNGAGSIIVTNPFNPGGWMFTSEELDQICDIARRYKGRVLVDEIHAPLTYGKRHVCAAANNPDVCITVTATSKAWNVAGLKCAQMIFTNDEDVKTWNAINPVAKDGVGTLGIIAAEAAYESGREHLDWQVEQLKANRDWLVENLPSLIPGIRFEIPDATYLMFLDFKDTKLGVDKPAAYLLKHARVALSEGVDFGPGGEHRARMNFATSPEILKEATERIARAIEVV

Compound | Inhibition of release of free SH groups from S-benzyl-cys-gly in presence of peptidase and β-lyase ([1]; test compound 15.625 microM) | Inhibition of release of free SH groups from S-benzyl-cys-gly in presence of peptidase and β-lyase ([1]; test compound 31.25 microM) | Inhibition of release of free SH groups from S-benzyl-cys-gly in presence of peptidase and β-lyase ([1]; test compound 62.5 microM) | Inhibition of release of free NH2 groups from Pro-Gly ([2]; test compound 15.625 microM) | Inhibition of release of free NH2 groups from Pro-Gly ([2]; test compound 31.25 microM) | Inhibition of release of free NH2 groups from Pro-Gly ([2]; test compound 62.5 microM) | Inhibition of release of free NH2 groups from N-Lauroyl-glutamine (catalyzed by AMRE) ([3]; test compound 15.625 microM) | Inhibition of release of free NH2 groups from N-Lauroyl-glutamine (catalyzed by AMRE) ([3]; test compound 31.25 microM) | Inhibition of release of free NH2 groups from N-Lauroyl-glutamine (catalyzed by AMRE) ([3]; test compound 62.5 microM) | Cleavage (Ax20 peptidase) | also measured
O=C(O)CSCCSCC(=O)O [2,2′-Ethylendithio-diacetic acid] | −10.1 % inhibition | −9.1 % inhibition | −8.7 % inhibition | 0.1 % inhibition | −2.6 % inhibition | −5.3 % inhibition | 22.4 % inhibition | 12.7 % inhibition | 19.6 % inhibition |  | 
CC(N)C(=O)NC(C)C(=O)O (centres unmarked) [Ala-Ala] |  |  |  |  |  |  |  |  |  | ++ | 
CC(N)C(=O)NCC(=O)O (centres unmarked) [Ala-Gly] |  |  |  |  |  |  |  |  |  | ++ | 
O=C(O)CN(CCN(CC(=O)O)CC(=O)O)CC(=O)O [Ethylenediaminetetraacetic acid] | 99.3 % inhibition | 96.5 % inhibition | 99.0 % inhibition | 101.0 % inhibition | 102.6 % inhibition | 101.4 % inhibition | 62.4 % inhibition | 59.8 % inhibition | 61.6 % inhibition |  | 
NCC(=O)NCC(=O)O [Gly-Gly] (H-Gly-Gly-OH) |  |  |  |  |  |  |  |  |  | + ((+) indicates partial cleavage (20-80%) of a 1 mM solution by 1 μg/ml peptidase during an incubation for 1 h) | 
NC(CSCc1ccccc1)C(=O)NCC(=O)O (centres unmarked) [H-Cys(Bzl)-Gly-OH, S-benzyl-Cys-Gly] |  |  |  |  |  |  |  |  |  | +++ ((+++) indicating >80% cleavage of a 1 mM solution by 0.1 μg/ml peptidase during an incubation for 1 h) | 
O=C(O)CNC(=O)C1CCCN1 (centres unmarked) [Pro-Gly] |  |  |  |  |  |  |  |  |  | + ((+) indicates partial cleavage (20-80%) of a 1 mM solution by 1 μg/ml peptidase during an incubation for 1 h) | 
C[C@H](NC(=O)OCc1ccccc1)C(=O)O [Z-Ala] |  |  |  |  |  |  |  |  |  | − | 
O=C(O)CNC(=O)CNC(=O)OCc1ccccc1 [Z-Gly-Gly] (Cbz-Gly-Gly-OH) |  |  |  |  |  |  |  |  |  | − | 
O=C(O)CNC(=O)OCc1ccccc1 [Z-Gly] |  |  |  |  |  |  |  |  |  | − | 
CCCC(C)(CCO)SC[C@H](N)C(=O)O (some centres unmarked) [cys-conjugate] |  |  |  |  |  |  |  |  |  |  | release of 3-sulfanyl-3-methyl-hexanol from the conjugate (C. sp. Ax 20 extract): 0.31 mM; release of 3-sulfanyl-3-methyl-hexanol from the conjugate (β-lyase): 0.59 mM
O=C(O)CNCCNCC(=O)O [ethylendiamine-N,N′-diacetic acid] | 50.2 % inhibition | 73.1 % inhibition | 90.4 % inhibition | 65.7 % inhibition | 81.0 % inhibition | 93.9 % inhibition | 7.4 % inhibition | 7.2 % inhibition | 42.7 % inhibition |  | 
c1cnc2c(c1)ccc1cccnc12 [o-Phenantrolin] | 54.2 % inhibition | 79.9 % inhibition | 93.1 % inhibition | 83.9 % inhibition | 95.5 % inhibition | 100.0 % inhibition | 42.4 % inhibition | 81.8 % inhibition | 96.1 % inhibition |  | % inhibition of 3-sulfanyl-3-methyl-hexanol release compared to reactions without added inhibitors (C. sp. Ax20 extract; substrate Cys-Gly-conj. 1 mM): 100 % inhibition; % inhibition of 3-sulfanyl-3-methyl-hexanol release compared to reactions without added inhibitors (C. sp. Ax20 extract; substrate Cys-conj. 1 mM): 0 % inhibition; % inhibition of 3-sulfanyl-3-methyl-hexanol release compared to reactions without added inhibitors (C. jeikeium K411 extract; substrate Cys-Gly-conj. 1 mM): 93 % inhibition; % inhibition of 3-sulfanyl-3-methyl-hexanol release compared to reactions without added inhibitors (C. jeikeium K411 extract; substrate Cys-conj. 1 mM): 13 % inhibition
O=C(O)c1cccc(C(=O)O)n1 [pyridine-2,6-dicarboxylic acid] | 49.6 % inhibition | 83.4 % inhibition | 95.9 % inhibition | 72.4 % inhibition | 92.4 % inhibition | 100.9 % inhibition | 28.8 % inhibition | 52.0 % inhibition | 72.2 % inhibition |  | 
